Measurements: patent US9630977B2, “Cephalosporin derivatives and pharmaceutical compositions thereof” (Legochem Biosciences, Inc., priority 2011, dated 2017)
In brackets after ≈: the same amount, converted by molar mass. Where two headings read alike, the source gives them in different places.

Legend:
Assay in all cases: In vitro antibacterial activity test (broth microdilution)
Assay type in all cases: cell-based
[1] = tested on: M. catarrhalis 2524; settings: Moraxella catarrhalis
How it was run: (§1)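 MIC90 was determined by CLSI broth microdilution against clinical isolates, as the lowest concentration inhibiting visible growth of 90% of organisms relative to untreated control. Final compound concentrations spanned 0.0626–128 ug/mL with 2.5% (V/V) DMSO.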

[2] = tested on: P. aeruginosa 1912E; settings: Pseudomonas aeruginosa, 1912E
How it was run: as §1

[3] = tested on: A. baumannii 46
How it was run: as §1

[4] = tested on: K. pneumoniae β9; settings: Klebsiella pneumoniae
How it was run: as §1

[5] = tested on: K. pneumoniae β13; settings: Klebsiella pneumoniae
How it was run: as §1

[6] = tested on: P. aeruginosa 40
How it was run: as §1

[7] = tested on: P. aeruginosa 37; settings: Pseudomonas aeruginosa, 37, P. aeruginosa 37
How it was run: as §1

[8] = tested on: P. aeruginosa 6065Y; settings: Pseudomonas aeruginosa
How it was run: as §1

[9] = tested on: E. coli AG100; settings: Escherichia coli
How it was run: as §1

[10] = tested on: E. coli β4; settings: Escherichia coli
How it was run: as §1

[11] = tested on: A. baumannii 52; settings: Acinetobacter baumannii
How it was run: as §1

[12] = tested on: A. calcoaceticus ATCC15473; settings: Acinetobacter calcoaceticus
How it was run: as §1

[13] = tested on: K. pneumoniae 2011E; settings: Klebsiella pneumoniae, 2011E
How it was run: as §1

[14] = tested on: K. pneumoniae β14; settings: Klebsiella pneumoniae
How it was run: as §1

[15] = tested on: K. pneumoniae β10; settings: Klebsiella pneumoniae
How it was run: as §1

[16] = tested on: P. aeruginosa 43; settings: Pseudomonas aeruginosa
How it was run: as §1

[17] = tested on: K. pneumoniae β11; settings: Klebsiella pneumoniae
How it was run: as §1

[18] = tested on: E. cloacae β19; settings: Enterobacter cloacae
How it was run: as §1

[19] = tested on: A. baumannii 49
How it was run: as §1

[20] = Acinetobacter baumannii, 46, A. baumannii 46
[21] = ATCC15473, A. calcoaceticus ATCC15473
[22] = Acinetobacter baumannii, 49, A. baumannii 49

Compound	MIC90 [1]; 2524 [µg/mL]	MIC90 [2] [µg/mL]	MIC90 [3, 20] [µg/mL]	MIC90 [4] [µg/mL]	MIC90 [5] [µg/mL]	MIC90 ([6]; Pseudomonas aeruginosa, 40) [µg/mL]	MIC90 [7] [µg/mL]	MIC90 ([8]; 6065Y) [µg/mL]	MIC90 ([9]; AG100) [µg/mL]	MIC90 [10] [µg/mL]	MIC90 [11]; 52 [µg/mL]	MIC90 [12, 21] [µg/mL]	MIC90 [13] [µg/mL]	MIC90 [14] [µg/mL]	MIC90 [15] [µg/mL]	MIC90 [16]; 43 [µg/mL]	MIC90 [17] [µg/mL]	MIC90 [18] [µg/mL]	MIC90 [19, 22] [µg/mL]	further results
CC(C)(O/N=C(\C(=O)N[C@@H]1C(=O)N2C(C(=O)[O-])=C(/C=C/C[n+]3cnc(N)c(NCCCN)c3)CSC12)c1nc(N)sc1Cl)C(=O)O (stereo partly drawn) [Compound 57]	< 0.0625	0.5 (≈ 0.719 µM)	1 (≈ 1.44 µM)	1 (≈ 1.44 µM)	0.5 (≈ 0.719 µM)	4 (≈ 5.75 µM)	8 (≈ 11.5 µM)	16 (≈ 23 µM)	0.125 (≈ 0.18 µM)	0.125 (≈ 0.18 µM)	64 (≈ 92.1 µM)	0.5 (≈ 0.719 µM)	0.25 (≈ 0.36 µM)	1 (≈ 1.44 µM)	0.25 (≈ 0.36 µM)	> 128	128 (≈ 184 µM)	8 (≈ 11.5 µM)	64 (≈ 92.1 µM)	
CC(C)(O/N=C(\C(=O)N[C@@H]1C(=O)N2C(C(=O)[O-])=C(/C=C/C[n+]3cnc(N)c(NCCN)c3)CSC12)c1nsc(N)n1)C(=O)O (stereo partly drawn) [Compound 55]	< 0.0625	1 (≈ 1.54 µM)	0.5 (≈ 0.772 µM)	2 (≈ 3.09 µM)	0.25 (≈ 0.386 µM)	1 (≈ 1.54 µM)	4 (≈ 6.18 µM)	8 (≈ 12.4 µM)	< 0.0625	< 0.0625	64 (≈ 98.8 µM)	0.125 (≈ 0.193 µM)	< 0.0625	0.5 (≈ 0.772 µM)	0.125 (≈ 0.193 µM)	> 128	128 (≈ 198 µM)	8 (≈ 12.4 µM)	64 (≈ 98.8 µM)	
CC(C)(O/N=C(\C(=O)N[C@@H]1C(=O)N2C(C(=O)[O-])=C(/C=C/C[n+]3cnc(N)c(NC(=O)CCN)c3N)CSC12)c1csc(N)n1)C(=O)O (stereo partly drawn) [Compound 66]	< 0.0625	4 (≈ 5.8 µM)	16 (≈ 23.2 µM)	0.5 (≈ 0.725 µM)	0.5 (≈ 0.725 µM)	8 (≈ 11.6 µM)	16 (≈ 23.2 µM)	16 (≈ 23.2 µM)	0.25 (≈ 0.362 µM)	0.25 (≈ 0.362 µM)	> 128	2 (≈ 2.9 µM)	0.5 (≈ 0.725 µM)	1 (≈ 1.45 µM)	0.5 (≈ 0.725 µM)	> 128	16 (≈ 23.2 µM)	0.25 (≈ 0.362 µM)	> 128	
CC(C)(O/N=C(\C(=O)N[C@@H]1C(=O)N2C(C(=O)[O-])=C(/C=C/C[n+]3cnc(N)c(NC(=O)CCN)c3)CSC12)c1nc(N)sc1Cl)C(=O)O (stereo partly drawn) [Compound 62]	< 0.0625	4 (≈ 5.64 µM)	16 (≈ 22.6 µM)	1 (≈ 1.41 µM)	1 (≈ 1.41 µM)	8 (≈ 11.3 µM)	8 (≈ 11.3 µM)	16 (≈ 22.6 µM)	0.5 (≈ 0.705 µM)	0.5 (≈ 0.705 µM)	32 (≈ 45.1 µM)	1 (≈ 1.41 µM)	1 (≈ 1.41 µM)	1 (≈ 1.41 µM)	0.5 (≈ 0.705 µM)	64 (≈ 90.2 µM)	1 (≈ 1.41 µM)	4 (≈ 5.64 µM)	32 (≈ 45.1 µM)	
CC(C)(O/N=C(\C(=O)N[C@@H]1C(=O)N2C(C(=O)[O-])=C(C[n+]3cnc(N)c(NC(=O)CCNC(=O)c4cc(=O)c(O)cn4O)c3)CSC12)c1nsc(N)n1)C(=O)O (stereo partly drawn) [Compound 19]																				MIC90 ([1]; M. catarrhalis 2524, read-out: MIC90): 1 µg/mL (≈ 1.25 µM); MIC90 ([2]; read-out: MIC90): 2 µg/mL (≈ 2.49 µM); MIC90 ([3]; Acinetobacter baumannii, A. baumannii 46, read-out: MIC90): 4 µg/mL (≈ 4.98 µM); MIC90 ([4]; K. pneumoniae β9, read-out: MIC90): 64 µg/mL (≈ 79.7 µM); MIC90 ([5]; K. pneumoniae β13, read-out: MIC90): 16 µg/mL (≈ 19.9 µM); MIC90 ([6]; Pseudomonas aeruginosa, 40, P. aeruginosa 40, read-out: MIC90): 0.5 µg/mL (≈ 0.623 µM); MIC90 ([7]; read-out: MIC90): 0.5 µg/mL (≈ 0.623 µM); MIC90 ([8]; read-out: MIC90): 2 µg/mL (≈ 2.49 µM); MIC90 ([9]; AG100, E. coli AG100, read-out: MIC90): 1 µg/mL (≈ 1.25 µM); MIC90 ([10]; read-out: MIC90): 16 µg/mL (≈ 19.9 µM); MIC90 ([11]; A. baumannii 52, read-out: MIC90): 8 µg/mL (≈ 9.97 µM); MIC90 ([12]; A. calcoaceticus ATCC15473, read-out: MIC90): 0.5 µg/mL (≈ 0.623 µM); MIC90 ([13]; K. pneumoniae 2011E, read-out: MIC90): 16 µg/mL (≈ 19.9 µM); MIC90 ([14]; read-out: MIC90): 128 µg/mL (≈ 159 µM); MIC90 ([15]; K. pneumoniae β10, read-out: MIC90): 1 µg/mL (≈ 1.25 µM); MIC90 ([16]; P. aeruginosa 43, read-out: MIC90): 2 µg/mL (≈ 2.49 µM); MIC90 ([17]; K. pneumoniae β11, read-out: MIC90): > 128 µg/mL; MIC90 ([18]; read-out: MIC90): 128 µg/mL (≈ 159 µM); MIC90 ([19]; Acinetobacter baumannii, A. baumannii 49, read-out: MIC90): 16 µg/mL (≈ 19.9 µM)
CC(C)(O/N=C(\C(=O)N[C@@H]1C(=O)N2C(C(=O)[O-])=C(/C=C/C[n+]3cnc(N)c(NC(=O)CCCN)c3)CSC12)c1nsc(N)n1)C(=O)O (stereo partly drawn) [Compound 65]	< 0.0625	2 (≈ 2.9 µM)	64 (≈ 92.8 µM)	16 (≈ 23.2 µM)	2 (≈ 2.9 µM)	4 (≈ 5.8 µM)	32 (≈ 46.4 µM)	32 (≈ 46.4 µM)	< 0.0625	0.125 (≈ 0.181 µM)	64 (≈ 92.8 µM)	0.5 (≈ 0.725 µM)	0.25 (≈ 0.362 µM)	2 (≈ 2.9 µM)	1 (≈ 1.45 µM)	> 128	> 128	32 (≈ 46.4 µM)	64 (≈ 92.8 µM)	
